In patent EP0908457B1, “3-(1,2-benzisothiazol- and isoxazol-5-Y1)-2,4(1H,3H)-pyrimidinedione or thione and 3-(1,2-benzisothiazol- and isoxazol-5-y1)-4(3H)-pyrimidinone or thione herbicidal agents” (BASF AKTIENGESELLSCHAFT, priority 1997, dated 1999):

Assays:
[1] = test system: Monochoria vaginalis, Presl.; assay: Preemergence weed control under flooded paddy conditions, MOOVA (Monochoria); assay type: in vivo; conditions: preemergence, flooded paddy
[2] = test system: Sagittaria pygmaea, L.; assay: Preemergence weed control under flooded paddy conditions, SAGPY (Arrowhead (Pygmaea)); assay type: in vivo; conditions: preemergence, flooded paddy
[3] = test system: Cyperus iria; assay: Preemergence weed control under flooded paddy conditions, CYPIR (Rice Flatsedge); assay type: in vivo; conditions: preemergence, flooded paddy
[4] = test system: Cyperus serotinus, Rottb.; assay: Preemergence weed control under flooded paddy conditions, CYPSE (Flatsedge); assay type: in vivo; conditions: preemergence
[5] = test system: Echinochloa oryzoides (Ard.) Fritsch.; assay: Preemergence weed control under flooded paddy conditions, ECHORC (Watergrass (Calif.)); assay type: in vivo; conditions: preemergence, flooded paddy
[6] = test system: Oryza sativa, (L.) Tebonnet; assay: Rice tolerance to post-transplant applications under flooded paddy conditions (Example 187), ORYSAT (Rice, Tebonnet); on herbicidal effect rating ORYSAT: meaning of each grade not given here
[7] = Rate 0.0320 kg/ha, rated 3-4 weeks after treatment
[8] = Rate 0.0620 kg/ha, rated 3-4 weeks after treatment
[9] = Rate 0.1250 kg/ha, rated 3-4 weeks after treatment
[10] = Rate 0.2500 kg/ha, rated 3-4 weeks after treatment
[11] = Rate 0.0320 kg/ha, rated three to four weeks after treatment
[12] = Rate 0.0620 kg/ha, rated three to four weeks after treatment
[13] = Rate 0.1250 kg/ha, rated three to four weeks after treatment
[14] = Rate 0.2500 kg/ha, rated three to four weeks after treatment
[15] = Rate 0.5000 kg/ha, rated three to four weeks after treatment
[16] = Rate 0.5000 kg/ha, rated 3-4 weeks after treatment

SMILES: C=CCOC(=O)/C=C/c1nsc2ccc(-n3c(=O)cc(C(F)(F)F)n(C)c3=O)cc12 [Example 566, 1,2-Benzisothiazole-3-acrylic acid, 5-[3,6-dihydro-3-methyl-2,6-dioxo-4-(trifluoromethyl)-1(2H)-pyrimidinyl]-, allyl ester, (E)-]
- herbicidal effect rating, MOOVA [1, 7]: 9.0
- herbicidal effect rating, MOOVA [1, 8]: 9.0
- herbicidal effect rating, MOOVA [1, 9]: 9.0
- herbicidal effect rating, MOOVA [1, 10]: 9.0
- herbicidal effect rating, SAGPY [2, 7]: 0.0
- herbicidal effect rating, SAGPY [2, 8]: 0.0
- herbicidal effect rating, SAGPY [2, 9]: 0.0
- herbicidal effect rating, SAGPY [2, 10]: 9.0
- herbicidal effect rating, CYPIR [3, 7]: 0.0
- herbicidal effect rating, CYPIR [3, 8]: 0.0
- herbicidal effect rating, CYPIR [3, 9]: 0.0
- herbicidal effect rating, CYPIR [3, 10]: 9.0
- herbicidal effect rating, CYPSE [4, 7]: 0.0
- herbicidal effect rating, CYPSE [4, 8]: 0.0
- herbicidal effect rating, CYPSE [4, 9]: 0.0
- herbicidal effect rating, CYPSE [4, 10]: 3.0
- herbicidal effect rating, ECHORC [5, 7]: 3.0
- herbicidal effect rating, ECHORC [5, 8]: 3.0
- herbicidal effect rating, ECHORC [5, 9]: 3.0
- herbicidal effect rating, ECHORC [5, 10]: 6.0
- herbicidal effect rating ORYSAT [6, 8]: 3.0
- herbicidal effect rating ORYSAT [6, 9]: 5.0
- herbicidal effect rating ORYSAT [6, 10]: 6.0

SMILES: COC(=O)COc1ccc(-c2nsc3ccc(-n4c(=O)cc(C(F)(F)F)n(C)c4=O)cc23)cc1 [Example 257, Acetic acid, {p-{5-[3,6-dihydro-3-methyl-2,6-dioxo-4-(trifluoromethyl)-1(2H)-pyrimidinyl)-1,2-benzisothiazol-3-yl}phenoxy}-, methyl ester]
- MOOVA herbicidal effect rating [1, 11]: 8.0
- MOOVA herbicidal effect rating [1, 12]: 9.0
- MOOVA herbicidal effect rating [1, 13]: 9.0
- MOOVA herbicidal effect rating [1, 14]: 9.0
- SAGPY herbicidal effect rating [2, 11]: 0.0
- SAGPY herbicidal effect rating [2, 12]: 0.0
- SAGPY herbicidal effect rating [2, 13]: 0.0
- SAGPY herbicidal effect rating [2, 14]: 0.0
- CYPIR herbicidal effect rating [3, 11]: 0.0
- CYPIR herbicidal effect rating [3, 12]: 2.0
- CYPIR herbicidal effect rating [3, 13]: 4.0
- CYPIR herbicidal effect rating [3, 14]: 6.0
- CYPSE herbicidal effect rating [4, 11]: 0.0
- CYPSE herbicidal effect rating [4, 12]: 0.0
- ECHORC herbicidal effect rating [5, 11]: 0.0
- ECHORC herbicidal effect rating [5, 12]: 0.0
- ECHORC herbicidal effect rating [5, 13]: 0.0
- ECHORC herbicidal effect rating [5, 14]: 0.0
- ORYSAT herbicidal effect rating [6, 11]: 0.0
- ORYSAT herbicidal effect rating [6, 12]: 0.0
- ORYSAT herbicidal effect rating [6, 13]: 1.0
- ORYSAT herbicidal effect rating [6, 14]: 2.0

SMILES: Cn1c(C(F)(F)F)cc(=O)n(-c2ccc3snc(/C=C/CBr)c3c2)c1=O [Example 360, 2,4(1H,3H)-Pyrimidinedione, 3-[3-(3-bromopropenyl)-1,2-benzisothiazol-5-yl]-1-methyl-6-(trifluoromethyl)-, (E)-]
- herbicidal effect rating, MOOVA [1, 11]: 4.5
- herbicidal effect rating, MOOVA [1, 12]: 4.5
- herbicidal effect rating, MOOVA [1, 13]: 4.5
- herbicidal effect rating, MOOVA [1, 14]: 9.0
- herbicidal effect rating, MOOVA [1, 15]: 9.0
- herbicidal effect rating, SAGPY [2, 11]: 1.5
- herbicidal effect rating, SAGPY [2, 12]: 4.5
- herbicidal effect rating, SAGPY [2, 13]: 4.5
- herbicidal effect rating, SAGPY [2, 14]: 9.0
- herbicidal effect rating, SAGPY [2, 15]: 9.0
- herbicidal effect rating, CYPIR [3, 11]: 0.0
- herbicidal effect rating, CYPIR [3, 12]: 2.5
- herbicidal effect rating, CYPIR [3, 13]: 9.0
- herbicidal effect rating, CYPIR [3, 14]: 9.0
- herbicidal effect rating, CYPIR [3, 15]: 9.0
- herbicidal effect rating, CYPSE [4, 11]: 0.0
- herbicidal effect rating, CYPSE [4, 12]: 0.0
- herbicidal effect rating, CYPSE [4, 13]: 0.0
- herbicidal effect rating, CYPSE [4, 14]: 9.0
- herbicidal effect rating, ECHORC [5, 11]: 0.0
- herbicidal effect rating, ECHORC [5, 12]: 2.0
- herbicidal effect rating, ECHORC [5, 13]: 5.0
- herbicidal effect rating, ECHORC [5, 14]: 7.5
- herbicidal effect rating, ECHORC [5, 15]: 9.0
- herbicidal effect rating ORYSAT [6, 11]: 1.0
- herbicidal effect rating ORYSAT [6, 12]: 2.0
- herbicidal effect rating ORYSAT [6, 13]: 3.5
- herbicidal effect rating ORYSAT [6, 14]: 9.0
- herbicidal effect rating ORYSAT [6, 15]: 9.0

SMILES: Cc1ccc(OCC(=O)c2ccc(OC(F)F)cc2)c(-c2nsc3ccc(-n4c(=O)cc(C(F)(F)F)n(C)c4=O)cc23)c1 [Example 543, 2,4(1H,3H)-Pyrimidinedione, 3-{3-{6-{[p-(difluoromethoxy)phenacyl]oxy}-m-tolyl}-1,2-benzisothiazol-5-yl}-1-methyl-6-(trifluoromethyl)-]
- herbicidal effect rating, MOOVA [1, 7]: 9.0
- herbicidal effect rating, MOOVA [1, 8]: 9.0
- herbicidal effect rating, MOOVA [1, 9]: 9.0
- herbicidal effect rating, MOOVA [1, 10]: 9.0
- herbicidal effect rating, MOOVA [1, 16]: 9.0
- herbicidal effect rating, SAGPY [2, 7]: 0.0
- herbicidal effect rating, SAGPY [2, 8]: 0.0
- herbicidal effect rating, SAGPY [2, 9]: 0.0
- herbicidal effect rating, SAGPY [2, 10]: 0.0
- herbicidal effect rating, SAGPY [2, 16]: 0.0
- herbicidal effect rating, CYPIR [3, 7]: 2.0
- herbicidal effect rating, CYPIR [3, 8]: 6.0
- herbicidal effect rating, CYPIR [3, 9]: 7.0
- herbicidal effect rating, CYPIR [3, 10]: 8.0
- herbicidal effect rating, CYPIR [3, 16]: 3.0
- herbicidal effect rating, CYPSE [4, 7]: 0.0
- herbicidal effect rating, CYPSE [4, 8]: 0.0
- herbicidal effect rating, CYPSE [4, 9]: 0.0
- herbicidal effect rating, CYPSE [4, 10]: 0.0
- herbicidal effect rating, CYPSE [4, 16]: 0.0
- herbicidal effect rating, ECHORC [5, 7]: 2.1
- herbicidal effect rating, ECHORC [5, 8]: 2.9
- herbicidal effect rating, ECHORC [5, 9]: 4.0
- herbicidal effect rating, ECHORC [5, 10]: 7.0
- herbicidal effect rating, ECHORC [5, 16]: 9.0
- herbicidal effect rating ORYSAT [6, 7]: 0.0
- herbicidal effect rating ORYSAT [6, 8]: 0.0
- herbicidal effect rating ORYSAT [6, 9]: 1.0
- herbicidal effect rating ORYSAT [6, 10]: 2.0
- herbicidal effect rating ORYSAT [6, 16]: 2.0
